Source: patent US20170304388A1, “NEW INDICATION OF CARDIOVASCULAR DRUGS FOR PREPARATION OF CANCER INHIBITION PHARMACEUTICAL COMPOSITION” (LAUNX BIOMEDICAL CO., LTD., priority 2014, published 2017)
Like-named read-outs stand apart in the source and are kept apart here.

Assays:
Format in all cases: cell-based
TOV-21G = assay: Cell viability analysis (WST-1), TOV-21G; conditions: Homo sapiens, TOV21G, 72 h, Table 4, repeated experiments, drug 10 μM, read-out: survival rate (viability) of cancer cells, TOV-21G
How it was run: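 Seeded at 3000 cells per well, then exposed to drug at 10 μM for 72 h. Viability measured by WST-1 reagent (1:10 in medium) for 30–90 min at 37° C, read as OD450, expressed as survival rate.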

[1] = tested on: MKN-45 (Gastric Adenocarcinoma); assay: Cell viability analysis (WST-1), MKN-45; conditions: Homo sapiens, MKN-45, 72 h
[2] = tested on: HepG2 (Hepatocellular Carcinoma); assay: Cell viability analysis (WST-1), HepG2; conditions: Homo sapiens, HepG2, 72 h
[3] = tested on: PC3 (Prostate Adenocarcinoma); assay: Cell viability analysis (WST-1), PC3; conditions: 72 h
MDA-MB231 = assay: Cell viability analysis (WST-1), MDA-MB231; conditions: Homo sapiens, MDA-MB-231, 72 h, Table 4, repeated experiments, drug 10 μM, read-out: survival rate (viability) of cancer cells, MDA-MB231
BCC = assay: Cell viability analysis (WST-1), BCC; conditions: BCC, 72 h, Table 4, repeated experiments, drug 10 μM, read-out: survival rate (viability) of cancer cells, BCC

Compound `CCC(C)(C)C(=O)O[C@H]1C[C@@H](C)C=C2C=C[C@H](C)[C@H](CC[C@@H]3C[C@@H](O)CC(=O)O3)[C@H]21` [Simvastatin (Zocor), Simvastatin] has a viability at 10 µM (TOV-21G) of 63.6%, a viability at 10 µM ([1]; Table 3, drug 10 μM, WST-1, OD450 nm, read-out: survival rate (viability) of cancer cells, MKN-45) of 79.4% and a viability at 10 µM ([1]; Table 4, repeated experiments, drug 10 μM, WST-1, read-out: survival rate (viability) of cancer cells, MKN-45) of 92.6%. The viability at 10 µM ([2]; Table 3, drug 10 μM, WST-1, OD450 nm, read-out: survival rate (viability) of cancer cells, HepG2) was 113%, the viability at 10 µM ([2]; Table 4, repeated experiments, drug 10 μM, WST-1, read-out: survival rate (viability) of cancer cells, HepG2) was 124% and the viability at 10 µM ([3]; Table 3, drug 10 μM, WST-1, OD450 nm, read-out: survival rate (viability) of cancer cells, PC3) was 91.8%. For the same compound, the viability at 10 µM ([3]; Table 4, repeated experiments, drug 10 μM, WST-1, read-out: survival rate (viability) of cancer cells, PC-3) was 92.8%, the viability at 10 µM (MDA-MB231) was 71.1% and the viability at 10 µM (BCC) was 57.4%.
